In patent US20090253654A1 (priority 2005, published 2009):

How the values were obtained:
in vivo = conditions: for Co (Brain), highest concentration achieved in mouse brain: i.v. injection of 3 mg/kg; for Kp: in vivo
Experimental: FIG. 5: Pharmacokinetics of pro-galantamine Gln-1062 (3 mg/kg) in the mouse. […] FIG. 5b is an excerpt (“zoom”) of FIG. 5a, showing the concentration range between 0.00 and 1.00 μg/g (substance/body weight) more in detail.
Co is the highest pro-galantamine concentration (ng/ml) achieved in mouse brain after i.v. injection of 3 mg/kg of pro-galantamine. R-Pro is the brain-to-blood concentration ratio of pro-galantamine, R-Gal that of galantamine under these experimental conditions. For comparison, Co and R-Gal are also provided for i.v. injection of the same amount of galantamine.
Determination of the pharmacokinetic profiles of Gln-1062 and its cleavage product galantamine in blood and brain. Determine the brain-to-blood concentration ratios of Gln-1062 and its cleavage product galantamine, and assess the blood-brain barrier penetration capacities.
Analytical method for estimation of Gln-1062 was evaluated for its linearity, precision & accuracy and recovery in SAM blood and brain homogenate using LC/MS/MS.
Blood samples were collected from the retro-orbital plexus. 0.5 ml of blood was collected into a pre-labeled polypropylene micro centrifuge tube containing sodium citrate as the anticoagulant, and kept on ice.
Immediately after blood withdrawal, brain was perfused with phosphate buffer saline (pH 7.4), removed and frozen on dry ice.
Brain samples were thawed on ice and weighed. n appropriate volume ice cold homogenizing media (methanol:water::20:80,v/v) added. n ice, homogenized the brain sample with the polytron homogenizer and make up the volume with homogenizing media to get 1 gm of brain per 4 mL of homogenate. after homogenizing, immediately freezed the brain homogenate samples at −80° C. until analysis.

brain cholinesterase = target: T1, brain cholinesterase (Mus musculus, UniProt P21836); format: biochemical; conditions: mouse brain homogenate, 200 μM acetylthiocholine; pro-galantamines up to 50 μM
T1 construct: from tissue; host or cells: mouse brain homogenate
T1 sequence (P21836 32-614): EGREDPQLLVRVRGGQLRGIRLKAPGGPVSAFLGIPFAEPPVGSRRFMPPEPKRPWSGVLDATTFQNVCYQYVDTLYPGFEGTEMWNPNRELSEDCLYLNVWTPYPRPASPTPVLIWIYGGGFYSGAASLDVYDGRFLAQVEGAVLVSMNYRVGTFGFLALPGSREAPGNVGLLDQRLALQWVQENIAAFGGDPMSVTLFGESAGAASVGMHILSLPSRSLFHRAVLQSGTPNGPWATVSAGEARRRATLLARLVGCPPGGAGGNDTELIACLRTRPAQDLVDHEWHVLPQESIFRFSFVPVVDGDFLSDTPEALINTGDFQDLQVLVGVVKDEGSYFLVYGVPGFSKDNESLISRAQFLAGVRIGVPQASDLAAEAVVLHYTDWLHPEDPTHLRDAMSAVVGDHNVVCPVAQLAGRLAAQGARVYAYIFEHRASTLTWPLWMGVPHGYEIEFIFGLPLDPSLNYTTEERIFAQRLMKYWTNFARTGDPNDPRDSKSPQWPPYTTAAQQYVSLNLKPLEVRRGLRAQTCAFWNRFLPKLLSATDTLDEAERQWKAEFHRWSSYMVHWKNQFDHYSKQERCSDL
Experimental: A 20% mouse brain homogenate was used, supplemented with 200 μM of acetylthiocholine as substrate, and the initial reaction kinetics were measured according to Riddles P W, Blakeley R L, Zerner B., “Reassessment of Ellman's reagent” Methods Enzymol.
The brain is removed from the animal (mouse), shock frozen in liquid nitrogen and stored at minus 80° C. until use. Before preparing the extract, the frozen brain is thawed on ice and the weight is determined. Ice cold buffer (130 mM NaCl, 5 mM KCl, 2.5 mM CaCl2, 1 mM MgCl2, 5 mM Glucose, 5 mM HEPES, pH 7.4) is added to the thawed mouse brain (1:4, weight to volume, resulting in a 20% brain homogenate). The tissue is then homogenized in a potter homogeniser on ice, moving the piston up and down 11 times at 240 rpm. The freshly prepared mouse brain homogenate is divided into aliquots.
A modified Ellmann's esterase test is used. Briefly the method relies on the cleavage of the substrate acetylthiocholine to acetate and thiocholine. […] The inhibition is expressed as percent of the non inhibited reaction according to following equation: […]

[1] = test system: scopolamine-induced amnesia in mice; assay: Reversal from scopolamine-induced amnesia in mice, T-maze alternation; format: in vivo, mouse; conditions: i.p.
Experimental: Scopolamine induces a memory deficit that can be measured by […] alternation in a T-maze trial. The cognition enhancing drugs were i.p. injected at several different doses together with scopolamine 20 min before a T-maze trial. Recovery was measured as a function of dose, and the EC50 was determined for each drug.
Analysis of variance (ANOVA) was performed on the result data.

[2] = target: T2, a4β2 neuronal nicotinic acetylcholine receptor (Homo sapiens, UniProt P17787+P43681); assay: Whole-cell patch clamp recording of allosteric potentiation in HEK-293 cells; format: cell-based
T2 construct: expressed in transfected cells; host or cells: HEK-293
Experimental: FIG. 4: Interaction of galantamine and pro-galantamine with a4β2 neuronal nicotinic acetylcholine receptor ectopically expressed in HEK-293 cells. The increase in response to acetylcholine in the presence of galantamine and Gln-1062, respectively, was determined by whole-cell patch clamp recording. Galantamine achieved a maximal enhancement of response of ˜40% whereas the pro-galantamine achieved a maximal enhancement of only ˜17%.
Investigation of the allosteric modulation effect of drug candidates on nicotinic acetylcholine receptors (nAChRs) expressed in HEK-293 cells by electrophysiology. Results shown as FIG. 4.
Single HEK-293 cells expressing either human α4β2, human α3β4, or chimeric chicken α7 (with mouse 5HT3) nAChR were plated on fibronectin-coated cover slips for 3 days before measurement. […] A programmable puller (Sutter, USA) was used to prepare a twin pair of ready for use pipettes. […] To evaluate an allosteric potentiating ligand (APL) effect of selected compounds on each subtype of nAChR, they were added to stimulating nicotine solutions at the following concentrations: 1, 5, 10, 50, 100, 500, 1,000, 5,000 and 10,000 nM, and solutions were applied to the cell surface during 500 ms pulses through the U-tube, and then corresponding currents, digitized to 10 kHz, were recorded for 10 s. […]

[3] = cited from earlier work
[4] = unmodified drug; cited from earlier work

T2 sequence (P43681 29-627 limits assumed): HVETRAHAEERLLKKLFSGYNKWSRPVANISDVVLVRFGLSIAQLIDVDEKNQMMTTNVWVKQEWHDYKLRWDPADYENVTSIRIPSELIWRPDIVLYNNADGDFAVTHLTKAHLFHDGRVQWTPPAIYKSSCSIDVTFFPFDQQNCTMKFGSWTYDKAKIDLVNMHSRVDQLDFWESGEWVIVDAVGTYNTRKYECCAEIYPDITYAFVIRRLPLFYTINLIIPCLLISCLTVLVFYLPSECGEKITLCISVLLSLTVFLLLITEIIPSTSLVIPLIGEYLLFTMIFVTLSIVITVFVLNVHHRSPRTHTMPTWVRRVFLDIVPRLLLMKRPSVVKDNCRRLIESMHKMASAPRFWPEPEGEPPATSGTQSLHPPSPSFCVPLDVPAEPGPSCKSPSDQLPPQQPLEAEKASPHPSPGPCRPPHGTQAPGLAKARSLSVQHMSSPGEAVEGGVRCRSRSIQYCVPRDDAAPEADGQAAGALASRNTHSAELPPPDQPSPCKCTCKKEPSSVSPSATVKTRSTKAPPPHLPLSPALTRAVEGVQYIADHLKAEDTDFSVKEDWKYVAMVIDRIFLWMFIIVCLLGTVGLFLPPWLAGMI
T2 sequence (P17787 26-502): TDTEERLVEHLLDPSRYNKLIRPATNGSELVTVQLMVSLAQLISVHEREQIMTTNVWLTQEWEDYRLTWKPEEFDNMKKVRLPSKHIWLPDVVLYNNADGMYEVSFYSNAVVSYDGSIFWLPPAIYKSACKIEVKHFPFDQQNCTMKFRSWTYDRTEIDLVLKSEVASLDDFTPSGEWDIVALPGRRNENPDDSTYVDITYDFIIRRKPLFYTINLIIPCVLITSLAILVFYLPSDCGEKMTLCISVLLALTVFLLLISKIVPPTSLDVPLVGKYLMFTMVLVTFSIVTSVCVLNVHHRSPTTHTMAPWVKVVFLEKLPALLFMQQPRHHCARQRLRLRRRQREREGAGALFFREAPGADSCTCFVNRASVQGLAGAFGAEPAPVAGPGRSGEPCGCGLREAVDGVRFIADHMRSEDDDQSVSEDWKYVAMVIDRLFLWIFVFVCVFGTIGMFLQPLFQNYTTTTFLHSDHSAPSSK

For `C=C[C@@]12C=C[C@H](O)C[C@@H]1Oc1c(OC)ccc(CNC)c12` [10,11-Seco-11,12-dehydro-galantamine, (3R,4aS,9bS)-6-Methoxy-9-methylaminomethyl-3,4,4a,9b-tetrahydro-9b-vinyl-dibenzofuran-3-ol], the melting point was 127 to 129 °C.

In the case of `CCC(=O)O[C@H]1C=C[C@@]23CCN(C)Cc4ccc(OC)c(c42)O[C@H]3C1` [GLN-0978], the “Co (Brain), highest concentration achieved in mouse brain” value (from here on “Co (Brain)”) (in vivo) is reported as 1985 ng/mL and the Kp (in vivo; mouse, iv, 3 mg/kg) is reported as 6.9.

With `COc1ccc2c3c1O[C@H]1C[C@@H](OC(=O)C(C)C)C=C[C@@]31CCN(C)C2` [GLN-0979] the “Co (Brain)” value (in vivo) was 3166 ng/mL and the Kp (in vivo; mouse, iv, 3 mg/kg) was 6.2.

With `CCCCCC(=O)O[C@H]1C=C[C@@]23CCN(C)Cc4ccc(OC)c(c42)O[C@H]3C1` [GLN-0993] the “Co (Brain)” value (in vivo) was 2150 ng/mL and the Kp (in vivo; mouse, iv, 3 mg/kg) was 6.4.

In the case of `COc1ccc2c3c1OC1C[C@@H](OC(=O)c4ccccc4)C=C[C@@]31CCN(C)C2` (stereo partly drawn) [GLN-1062, (4aS,6R,8aS)-4a,5,9,10,11,12-Hexahydro-3-methoxy-11-methyl-6H-benzofuro[3a,3,2-ef][2]benzazepin-6-ol, benzoate (ester)], the Kp (in vivo; SAM, mouse) is reported as greater than 19, the “Co (Brain)” value (in vivo) is reported as 4812 ng/mL and the “concentration of GLN-1062 in blood at start of curve” value (in vivo; mouse, 3 mg/kg, FIG. 5b) is reported as “about 0.3 μg/g”. The Kp (in vivo; mouse, iv, 3 mg/kg) was 19.3, the “inhibition of brain cholinesterase” value (brain cholinesterase) was “little, if any cholinesterase inhibitory activity” and the “potency relative to galantamine in reversing scopolamine-induced amnesia” value [1] was “approximately 4 times”. For the same compound, the “maximal enhancement of response to acetylcholine” value [2] was roughly 17%.

In the case of `CCC(C)C(=O)O[C@H]1C=C[C@@]23CCN(C)Cc4ccc(OC)c(c42)OC3C1` (stereo partly drawn) [GLN-1067], the “Co (Brain)” value (in vivo) is reported as 4665 ng/mL and the Kp (in vivo; mouse, iv, 3 mg/kg) is reported as 7.5.

For `COc1ccc2c3c1OC1C[C@@H](OC(=O)C4CC4)C=C[C@@]31CCN(C)C2` (stereo partly drawn) [GLN-1076], the “Co (Brain)” value (in vivo) was 1245 ng/mL and the Kp (in vivo; mouse, iv, 3 mg/kg) was 1.1.

In the case of `COc1ccc2c3c1O[C@H]1C[C@@H](O)C=C[C@@]31CCN(C)C2` [Galantamine], the “Co (Brain)” value (in vivo) is listed as 1741 ng/mL, the Kp (in vivo; mouse, 3 mg/kg) is listed as roughly 1.3 and the “tissue to plasma ratio (T/P), spleen” value ([3]; female rat) is listed as roughly 20. For the same compound, the “tissue to plasma ratio (T/P), kidney” value ([3]; male and female rat) was 10-15, the “tissue to plasma ratio (T/P), salivary and adrenal gland” value ([3]; male and female rat) was 7-14 and the “brain to plasma ratio (T/P)” value ([3]; rat) was roughly 1.5. For the same compound, the “tissue to plasma ratio (T/P), lung, liver, heart, skeletal muscle and testes” value ([3]; rat) was 2-4, the brain-to-plasma ratio [4] was roughly 1.3 and the “maximal enhancement of response to acetylcholine” value [2] was roughly 40%.
